In ChEMBL document CHEMBL5096222, “Discovery of a Trifluoromethoxy Cyclopentanone Benzothiazole Receptor-Interacting Protein Kinase 1 Inhibitor as the Treatment for Alzheimer's Disease” (J Med Chem, 2022) one finds CC50, Kd and EC50 data, which are given here for eight compounds.

A short description of series [1]: Cytotoxicity against human HT-29 cells assessed as reduction in cell viability by celltiter-glo luminescent cell viability assay. The class given is toxicity, cell-based. Background: ATP-based viability assays read luminescence as a measure of living cells.
Series [2] deals with Receptor-interacting serine/threonine-protein kinase 3 (Homo sapiens, UniProt Q9Y572). The experiment in a line: Binding affinity to recombinant human wild type partial length RIPK3 (M1 to Q307 residues) expressed in bacterial expression system by KINOMEscan TM assay.
Series [3] deals with HT-29. Briefly: Anti-necroptotic activity in TSZ induced human HT-29 cells assessed as increase in cell viability pretreated with compound followed by TSZ stimulation and measured after 16 hrs by celltiter-glo luminescent cell viability assay. It counts as functional, cell-based.
The target in series [4] is T1, Receptor-interacting serine/threonine-protein kinase 1 (Homo sapiens, UniProt Q13546).
T1 sequence (Q13546 whole entry): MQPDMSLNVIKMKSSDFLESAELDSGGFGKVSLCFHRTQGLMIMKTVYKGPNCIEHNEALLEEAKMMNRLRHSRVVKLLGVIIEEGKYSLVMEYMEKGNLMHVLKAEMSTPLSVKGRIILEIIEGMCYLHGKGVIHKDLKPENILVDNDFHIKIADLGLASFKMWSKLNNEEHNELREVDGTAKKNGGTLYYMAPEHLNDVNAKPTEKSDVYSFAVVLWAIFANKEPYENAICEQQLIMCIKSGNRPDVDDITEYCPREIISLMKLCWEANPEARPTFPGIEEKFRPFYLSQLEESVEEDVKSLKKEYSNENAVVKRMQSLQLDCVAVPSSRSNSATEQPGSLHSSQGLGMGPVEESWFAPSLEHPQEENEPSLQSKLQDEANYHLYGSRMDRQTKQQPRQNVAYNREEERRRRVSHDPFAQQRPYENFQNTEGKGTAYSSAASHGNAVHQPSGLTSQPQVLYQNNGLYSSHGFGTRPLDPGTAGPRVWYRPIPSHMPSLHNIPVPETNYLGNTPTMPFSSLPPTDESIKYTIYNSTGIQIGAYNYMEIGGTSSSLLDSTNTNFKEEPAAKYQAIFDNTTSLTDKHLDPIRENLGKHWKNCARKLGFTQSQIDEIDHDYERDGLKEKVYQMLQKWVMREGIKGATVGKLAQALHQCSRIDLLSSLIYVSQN
Briefly: Binding affinity to recombinant human wild type partial length RIPK1 (M1 to K305 residues) expressed in bacterial expression system by KINOMEscan TM assay.

By CC50 is commonly meant the concentration that lowers cell viability or growth by half. A word on the Kd: it is the equilibrium constant for the complex coming apart. What is called EC50 is the concentration that produces a half-maximal response.

Chain of Receptor-interacting serine/threonine-protein kinase 3 (Q9Y572 whole entry, the tested form may be a part): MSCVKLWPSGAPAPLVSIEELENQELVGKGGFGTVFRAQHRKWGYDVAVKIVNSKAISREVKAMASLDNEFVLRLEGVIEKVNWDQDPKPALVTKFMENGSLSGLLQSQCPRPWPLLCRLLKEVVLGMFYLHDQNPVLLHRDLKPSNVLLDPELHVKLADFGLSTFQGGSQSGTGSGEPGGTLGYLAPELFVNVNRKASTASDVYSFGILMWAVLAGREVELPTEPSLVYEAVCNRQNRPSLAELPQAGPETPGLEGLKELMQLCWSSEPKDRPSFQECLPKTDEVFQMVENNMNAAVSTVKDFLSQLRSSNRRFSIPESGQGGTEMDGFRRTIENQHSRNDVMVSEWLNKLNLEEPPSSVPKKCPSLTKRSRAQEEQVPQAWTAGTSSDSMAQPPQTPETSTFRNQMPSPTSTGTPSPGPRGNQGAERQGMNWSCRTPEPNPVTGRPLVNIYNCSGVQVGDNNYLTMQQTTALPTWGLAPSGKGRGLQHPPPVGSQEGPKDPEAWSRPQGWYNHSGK

For the compound `O=C(Cc1cccc(OC(F)(F)F)c1)Nc1cc(Oc2cc3nc(NC(=O)C4CC4F)sc3cc2F)ccc1F` (centres undefined), in series [1], the 50% cytotoxic concentration (CC50) is more than 50000 nM. Moreover, the Kd in series [2] was more than 5000 nM; in series [4] it was 18 nM. For the same compound, the EC50 in series [3] came to 10 nM.
The like results for `O=C(Cc1cccc(OC(F)(F)F)c1)Nc1cc(Oc2cc3nc(NC(=O)C4CCOC4)sc3cc2F)ccc1F` (centres undefined) were, in that order, more than 50000 nM, more than 5000 nM, 12 nM and 13 nM.
`O=C1CCC(C(=O)Nc2nc3cc(Oc4ccc(F)c(NC(=O)Cc5cccc(OC(F)(F)F)c5)c4)c(F)cc3s2)C1` (centres undefined): in series [1], the half-maximal cytotoxic concentration (CC50) was more than 50000 nM. For the same compound, the dissociation constant (Kd) in series [2] is more than 5000 nM; in series [4] it was 9.6 nM. Besides, the concentration for a half-maximal effect (EC50) in series [3] turned out to be 8 nM.
For the compound `O=C(Cc1cccc(C(F)(F)F)c1)Nc1cc(Oc2cc3nc(NC(=O)C4CC4)sc3cc2F)ccc1F`, the CC50 in series [1] turned out to be 36500 nM. For the same compound, the Kd in series [2] was 77 nM; in series [4], 97 nM. In addition, the EC50 in series [3] is 170 nM.
For `CC1(C)CC1C(=O)Nc1nc2cc(Oc3ccc(F)c(NC(=O)Cc4cccc(OC(F)(F)F)c4)c3)c(F)cc2s1` (centres undefined), in that order: more than 50000 nM, more than 5000 nM, 25 nM and 12 nM.
`CN1C(=O)[C@@H](NC(=O)c2nnc(Cc3ccccc3)[nH]2)COc2ccccc21` [GSK2982772]: the CC50 in series [1] is more than 50000 nM.
As for `O=C(Cc1cccc(OC(F)(F)F)c1)Nc1cc(Oc2cc3nc(NC(=O)C4CC4)sc3cc2F)ccc1F`, the 50% cytotoxic concentration (CC50) in series [1] is more than 50000 nM. For the same compound, the results for the equilibrium dissociation constant (Kd) in series [2] and in series [4] were 120 nM and 49 nM, respectively. The EC50 in series [3] came out at 82 nM.
The like results for `O=C1CCC(C(=O)Nc2nc3cc(Oc4ccc(F)c(NC(=O)Cc5cccc(OC(F)(F)F)c5)c4)c(F)cc3s2)CC1` were, in that order, more than 50000 nM, more than 5000 nM, 4.5 nM and 10 nM.
